Results published in the supplement of paper PMC11061612.

Experiments:
Assay in all cases: combination Emax (second highest fraction inhibited in the dose matrix, 72 h); higher = more inhibition; extreme values may be limits of the assay
[1] = test system: HT-1080 (Other Solid Carcinomas)
Outline: (§1)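 Cell lines grown in DMEM/F12 or RPMI with 10% FBS were plated in 1536-well plates and held 24 hours at 37°C, 5% CO2 before 72 hours of exposure to two-drug dose matrices, with DMSO typically at 0.2%. CellTiter-Glo 2.0 luminescence gave viability, which was converted to inhibition. Vehicle wells were set to 0 and blank wells to 1. Combination Emax is the second-highest inhibition in the matrix, and Bliss excess is the observed combination effect minus the expected EA + EB − EA·EB, where EA and EB are the single-agent effects.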

[2] = test system: BxPC-3 (Pancreatic Carcinoma)
Outline: as §1

[3] = test system: SKG-IIIa (Cervical Carcinoma)
Outline: as §1

IST-MEL1 (Melanoma) = test system: IST-MEL1 (Melanoma)
Outline: as §1

WM35 (Melanoma) = test system: WM35 (Melanoma)
Outline: as §1

[4] = test system: ZR-75-30 (Breast Carcinoma)
Outline: as §1

[5] = test system: MONO-MAC-6 (Acute Myeloid Leukemia)
Outline: as §1

KALS-1 (Glioblastoma) = test system: KALS-1 (Glioblastoma)
Outline: as §1

[6] = test system: LS-1034 (Colorectal Carcinoma)
Outline: as §1

SK-N-SH (Neuroblastoma) = test system: SK-N-SH (Neuroblastoma)
Outline: as §1

[7] = test system: OVCAR-3 (Ovarian Carcinoma)
Outline: as §1

[8] = test system: C-33-A (Cervical Carcinoma)
Outline: as §1

[9] = test system: BHT-101 (Thyroid Gland Carcinoma)
Outline: as §1

[10] = test system: MOLP-8 (Plasma Cell Myeloma)
Outline: as §1

SMILES	combination Emax [1]	combination Emax [2]	combination Emax [3]	combination Emax (IST-MEL1 (Melanoma))	combination Emax (WM35 (Melanoma))	combination Emax [4]	combination Emax [5]	combination Emax (KALS-1 (Glioblastoma))	combination Emax [6]	combination Emax (SK-N-SH (Neuroblastoma))	combination Emax [7]	combination Emax [8]	combination Emax [9]	combination Emax [10]
CN(CCO)CC[C@H](CSc1ccccc1)Nc1ccc(S(=O)(=O)NC(=O)c2ccc(N3CCC([C@@H](O)c4ccccc4-c4ccc(Cl)cc4)CC3)cc2)cc1S(=O)(=O)C(F)(F)F [AZD4320] + C[C@@H]1COCCN1C2=NC(=NC(=C2)C3(CC3)[S@](=N)(=O)C)C4=C5C=CNC5=NC=C4 [AZD6738] (first compound max 1 µM, 7x7, partner max 10 µM)	0.656	0.751	0.536	0.941	0.367	0.286	0.943	0.939	0.721	0.988	0.555	0.928	0.877	0.787
CN(CCO)CC[C@H](CSc1ccccc1)Nc1ccc(S(=O)(=O)NC(=O)c2ccc(N3CCC([C@@H](O)c4ccccc4-c4ccc(Cl)cc4)CC3)cc2)cc1S(=O)(=O)C(F)(F)F [AZD4320] + C[C@@H](Nc1cc(F)cc(F)c1)c1cc(C(=O)N(C)C)cc2c(=O)cc(N3CCOCC3)oc12 [AZD8186] (first compound max 1 µM, 7x7, partner max 3 µM)	0.704	0.252	0.471	0.405	0.561	0.285	0.714	0.5	0.334	0.986	0.512	0.515	0.616	0.414
CN(CCO)CC[C@H](CSc1ccccc1)Nc1ccc(S(=O)(=O)NC(=O)c2ccc(N3CCC([C@@H](O)c4ccccc4-c4ccc(Cl)cc4)CC3)cc2)cc1S(=O)(=O)C(F)(F)F [AZD4320] + Cc1cc2ncnn2cc1Nc1ncc2c(n1)n(C1CCOCC1)c(=O)n2C [AZD7648] (first compound max 1 µM, 7x7, partner max 10 µM)	0.535	0.0888	0.12	0.415	0.16	0.126	0.393	0.343	0.159	0.828	0.156	0.22	0.363	0.444
CN(CCO)CC[C@H](CSc1ccccc1)Nc1ccc(S(=O)(=O)NC(=O)c2ccc(N3CCC([C@@H](O)c4ccccc4-c4ccc(Cl)cc4)CC3)cc2)cc1S(=O)(=O)C(F)(F)F [AZD4320] + Cn1cnc2c(F)c(Nc3ccc(Br)cc3Cl)c(C(=O)NOCCO)cc21 [Selumetinib] (first compound max 1 µM, 7x7, partner max 3 µM)	0.666	0.379	0.431	0.35	0.926	0.294	0.658	0.449	0.594	0.995	0.563	0.531	0.852	0.468
Cc1c2c(nn1C)CSCc1cc(n(C)n1)CSc1cc(c3ccccc3c1)OCCCc1c(C(=O)O)n(C)c3c-2c(Cl)ccc13 [AZD5991] + C1CN(CCC1(C(=O)N[C@@H](CCO)C2=CC=C(C=C2)Cl)N)C3=NC=NC4=C3C=CN4 [Capivasertib] (first compound max 1 µM, 7x7, partner max 3 µM)	0.139	0.126	0.18	0.212	0.207	0.567	1	0.469	0.22	0.387	0.185	0.689	0.418	1
Cc1c2c(nn1C)CSCc1cc(n(C)n1)CSc1cc(c3ccccc3c1)OCCCc1c(C(=O)O)n(C)c3c-2c(Cl)ccc13 [AZD5991] + C=CCn1c(=O)c2cnc(Nc3ccc(N4CCN(C)CC4)cc3)nc2n1-c1cccc(C(C)(C)O)n1 [AZD1775] (first compound max 1 µM, partner max 1 µM)	0.402	0.616	0.377	0.556	0.371	0.364	1	0.886	0.481	0.86	0.835	0.945	0.732	1
Cc1c2c(nn1C)CSCc1cc(n(C)n1)CSc1cc(c3ccccc3c1)OCCCc1c(C(=O)O)n(C)c3c-2c(Cl)ccc13 [AZD5991] + CC1(C)CCC(CN2CCN(c3ccc(C(=O)NS(=O)(=O)c4ccc(NCC5CCOCC5)c([N+](=O)[O-])c4)c(Oc4cnc5[nH]ccc5c4)c3)CC2)=C(c2ccc(Cl)cc2)C1 [Venetoclax] (first compound max 1 µM, 7x7, partner max 1 µM)	0.188	0.334	0.251	0.2	0.243	0.779	1	0.305	0.152	0.921	0.171	0.484	0.587	1
Cc1c2c(nn1C)CSCc1cc(n(C)n1)CSc1cc(c3ccccc3c1)OCCCc1c(C(=O)O)n(C)c3c-2c(Cl)ccc13 [AZD5991] + CCN(CCO)CCCOc1ccc2c(Nc3cc(CC(=O)Nc4cccc(F)c4)[nH]n3)ncnc2c1 [AZD2811] (first compound max 1 µM, 7x7, partner max 1 µM)	0.264	0.269	0.235	0.349	0.243	0.511	1	0.358	0.227	0.614	0.378	0.275	0.267	1
